Experimental data as given in US9999619B2, “Piperidin-4-yl azetidine derivatives as JAK1 inhibitors” (Incyte Corporation, priority 2010, dated 2018).

How the values were obtained:
Format in all cases: biochemical
[1] = biological target: Jak2 (a.a. 828-1132) (Homo sapiens (Human), UniProt O60674); test: In vitro JAK kinase assay (HTRF, phosphorylation of a biotinylated peptide), JAK2; conditions: measured at 1 mM ATP
Method in brief: (§1)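 N-terminal His-tagged catalytic domains, baculovirus-expressed in insect cells, phosphorylated a biotinylated peptide for 1 hr at room temperature. EDTA stop was followed by SA-APC and Eu-Py20 antibody for 40 minutes, with phosphopeptide read by HTRF.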

[2] = biological target: human JAK1 (a.a. 837-1142) (Homo sapiens, UniProt P23458); test: In vitro JAK kinase assay (HTRF, phosphorylation of a biotinylated peptide), JAK1; conditions: measured at 1 mM ATP
Method in brief: as §1

[3] = biological target: human JAK1 (a.a. 837-1142); test: as above; conditions: ratio of JAK2 IC50 to JAK1 IC50, measured at 1 mM ATP
Method in brief: as §1

Sequence of Jak2 (a.a. 828-1132) (O60674 828-1132): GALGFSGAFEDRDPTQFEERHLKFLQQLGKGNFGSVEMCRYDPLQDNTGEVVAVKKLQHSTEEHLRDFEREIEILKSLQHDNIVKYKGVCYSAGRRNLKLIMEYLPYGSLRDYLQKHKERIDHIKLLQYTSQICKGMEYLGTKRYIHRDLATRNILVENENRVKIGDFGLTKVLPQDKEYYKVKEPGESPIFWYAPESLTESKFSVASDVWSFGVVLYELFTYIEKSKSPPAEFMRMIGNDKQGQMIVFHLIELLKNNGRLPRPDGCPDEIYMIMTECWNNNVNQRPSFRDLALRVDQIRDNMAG

Compound	IC50 [1]	IC50 [2]	IC50 Ratio JAK2/JAK1 [3]
N#CCC1(n2ccc(-c3ncnc4[nH]ccc34)c2)CN(C2CCN(C(=O)c3ccc(C(F)(F)F)c(F)c3)CC2)C1 [Example 267, {1-{1-[3-fluoro-4-(trifluoromethyl)benzoyl]piperidin-4-yl}-3-[3-(7H-pyrrolo[2,3-d]pyrimidin-4-yl)-1H-pyrrol-1-yl]azetidin-3-yl}acetonitrile]	0.05 to 0.1 µM	0.005 to 0.02 µM	6.6
Cc1cc(NC(=O)N2CCC(N3CC(CC#N)(n4cc(-c5ncnc6[nH]ccc56)cn4)C3)CC2)n(C)n1 [Example 197, 4-{3-(cyanomethyl)-3-[4-(7H-pyrrolo[2,3-d]pyrimidin-4-yl)-1H-pyrazol-1-yl]azetidin-1-yl}-N-(1,3-dimethyl-1H-pyrazol-5-yl)piperidine-1-carboxamide]	0.01 to 0.05 µM	0.005 to 0.02 µM	3.2
N#CCC1(n2cc(-c3ncnc4[nH]ccc34)cn2)CN(C2CCN(C(=O)c3sc4cc(F)ccc4c3Cl)CC2)C1 [Example 91, {1-{1-[(3-chloro-6-fluoro-1-benzothien-2-yl)carbonyl]piperidin-4-yl}-3-[4-(7H-pyrrolo[2,3-d]pyrimidin-4-yl)-1H-pyrazol-1-yl]azetidin-3-yl}acetonitrile]	≤ 0.01 µM	≤ 0.005 µM	1.7
CN(C)Cc1cc(C(=O)N2CCC(N3CC(CC#N)(n4cc(-c5ncnc6[nH]ccc56)cn4)C3)CC2)nc(C(F)(F)F)n1 [Example 370, {1-(1-{[6-[(dimethylamino)methyl]-2-(trifluoromethyl)pyrimidin-4-yl]carbonyl}piperidin-4-yl)-3-[4-(7H-pyrrolo[2,3-d]pyrimidin-4-yl)-1H-pyrazol-1-yl]azetidin-3-yl}acetonitrile]	0.05 to 0.1 µM	≤ 0.005 µM	55
Cc1noc(C)c1S(=O)(=O)N1CCC(N2CC(CC#N)(n3cc(-c4ncnc5[nH]ccc45)cn3)C2)CC1 [Example 260, {1-{1-[(3,5-dimethylisoxazol-4-yl)sulfonyl]piperidin-4-yl}-3-[4-(7H-pyrrolo[2,3-d]pyrimidin-4-yl)-1H-pyrazol-1-yl]azetidin-3-yl}acetonitrile]	0.01 to 0.05 µM	≤ 0.005 µM	7.1
N#CCC1(n2cc(-c3ncnc4[nH]ccc34)cn2)CN(C2CCN(C(=O)Nc3ccccc3F)CC2)C1 [Example 169, 4-{3-(cyanomethyl)-3-[4-(7H-pyrrolo[2,3-d]pyrimidin-4-yl)-1H-pyrazol-1-yl]azetidin-1-yl}-N-(2-fluorophenyl)piperidine-1-carboxamide]	0.01 to 0.05 µM	≤ 0.005 µM	5.5
N#CCC1(n2cc(-c3ncnc4[nH]ccc34)cn2)CN(C2CCN(Cc3cc4ccccc4nc3Cl)CC2)C1 [Example 214, {1-{1-[(2-chloroquinolin-3-yl)methyl]piperidin-4-yl}-3-[4-(7H-pyrrolo[2,3-d]pyrimidin-4-yl)-1H-pyrazol-1-yl]azetidin-3-yl}acetonitrile]	0.01 to 0.05 µM	0.005 to 0.02 µM	2.5
N#CCC1(n2cc(-c3ncnc4[nH]ccc34)cn2)CN(C2CCN(Cc3ccnc(Br)c3)CC2)C1 [Example 226, {1-{1-[(2-bromopyridin-4-yl)methyl]piperidin-4-yl}-3-[4-(7H-pyrrolo[2,3-d]pyrimidin-4-yl)-1H-pyrazol-1-yl]azetidin-3-yl}acetonitrile]	0.01 to 0.05 µM	0.005 to 0.02 µM	1.9
Cc1cccc(Cl)c1NC(=O)N1CCC(N2CC(CC#N)(n3cc(-c4ncnc5[nH]ccc45)cn3)C2)CC1 [Example 161, N-(2-chloro-6-methylphenyl)-4-{3-(cyanomethyl)-3-[4-(7H-pyrrolo[2,3-d]pyrimidin-4-yl)-1H-pyrazol-1-yl]azetidin-1-yl}piperidine-1-carboxamide]	0.01 to 0.05 µM	≤ 0.005 µM	12.1
N#CCC1(n2cc(-c3ncnc4[nH]ccc34)cn2)CN(C2CCN(C(=O)c3cc4c(C(F)(F)F)cccc4s3)CC2)C1 [Example 93, [3-[4-(7H-pyrrolo[2,3-d]pyrimidin-4-yl)-1H-pyrazol-1-yl]-1-(1-{[4-(trifluoromethyl)-1-benzothien-2-yl]carbonyl}piperidin-4-yl)azetidin-3-yl]acetonitrile]	≤ 0.01 µM	≤ 0.005 µM	1.5
Cc1onc(-c2ccccc2)c1CN1CCC(N2CC(CC#N)(n3cc(-c4ncnc5[nH]ccc45)cn3)C2)CC1 [Example 230, {1-{1-[(5-methyl-3-phenylisoxazol-4-yl)methyl]piperidin-4-yl}-3-[4-(7H-pyrrolo[2,3-d]pyrimidin-4-yl)-1H-pyrazol-1-yl]azetidin-3-yl}acetonitrile]	> 0.1 µM	0.005 to 0.02 µM	9.3
COc1c(F)c(F)cc(C(=O)N2CCC(N3CC(CC#N)(n4cc(-c5ncnc6[nH]ccc56)cn4)C3)CC2)c1F [Example 32, {3-[4-(7H-pyrrolo[2,3-d]pyrimidin-4-yl)-1H-pyrazol-1-yl]-1-[1-(2,4,5-trifluoro-3-methoxybenzoyl)piperidin-4-yl]azetidin-3-yl}acetonitrile]	0.01 to 0.05 µM	≤ 0.005 µM	4.4
N#CCC1(n2cc(-c3ncnc4[nH]ccc34)cn2)CN(C2CCN(C(=O)c3ccc(F)cc3F)CC2)C1 [Example 42, {1-[1-(2,4-difluorobenzoyl)piperidin-4-yl]-3-[4-(7H-pyrrolo[2,3-d]pyrimidin-4-yl)-1H-pyrazol-1-yl]azetidin-3-yl}acetonitrile]	≤ 0.01 µM	≤ 0.005 µM	6.7
N#CCC1(n2cc(-c3c(F)cnc4[nH]ccc34)cn2)CN(C2CCN(C(=O)c3cc(F)cc(C#N)c3)CC2)C1 [Example 316, 3-[(4-{3-(cyanomethyl)-3-[4-(5-fluoro-1H-pyrrolo[2,3-b]pyridin-4-yl)-1H-pyrazol-1-yl]azetidin-1-yl}piperidin-1-yl)carbonyl]-5-fluorobenzonitrile]	0.01 to 0.05 µM	≤ 0.005 µM	9.5
N#CCC1(n2ccc(-c3ncnc4[nH]ccc34)c2)CN(C2CCN(C(=O)c3ccc(C(F)(F)F)cc3F)CC2)C1 [Example 272, {1-{1-[2-fluoro-4-(trifluoromethyl)benzoyl]piperidin-4-yl}-3-[3-(7H-pyrrolo[2,3-d]pyrimidin-4-yl)-1H-pyrrol-1-yl]azetidin-3-yl}acetonitrile]	0.01 to 0.05 µM	0.005 to 0.02 µM	6.5
Cc1nc(S(=O)(=O)N2CCC(N3CC(CC#N)(n4cc(-c5ncnc6[nH]ccc56)cn4)C3)CC2)cn1C [Example 259, {1-{1-[(1,2-dimethyl-1H-imidazol-4-yl)sulfonyl]piperidin-4-yl}-3-[4-(7H-pyrrolo[2,3-d]pyrimidin-4-yl)-1H-pyrazol-1-yl]azetidin-3-yl}acetonitrile]	≤ 0.01 µM	≤ 0.005 µM	4.6
CN(C)c1ccc(S(=O)(=O)N2CCC(N3CC(CC#N)(n4cc(-c5ncnc6[nH]ccc56)cn4)C3)CC2)cc1C#N [Example 250, 5-[(4-{3-(cyanomethyl)-3-[4-(7H-pyrrolo[2,3-d]pyrimidin-4-yl)-1H-pyrazol-1-yl]azetidin-1-yl}piperidin-1-yl)sulfonyl]-2-(dimethylamino)benzonitrile]	0.01 to 0.05 µM	≤ 0.005 µM	4.7
